Consider three compounds from US10357533B2, “Drug for the effective control of acute and or chronic pain and a method for its administration” (PVP LABS PTE. LTD., priority 2016, dated 2019).

The test system of data set [1] is rats. Nature of the data set: Hot plate test in rats. To be noted: for HPL, s (Mean ± SEM): hot plate 52° C. In kind it is in vivo. How it is done:
The “Hot Plate” test is based on the reflex that rat licking its' feet when the animal comes in contact with a hot surface. The device is a metal surface with a diameter of 30 cm whose temperature is controlled by software. The site is enclosed by a transparent fence with a height of 40 cm. The temperature of the metal pad was set at exactly 52° C. When placing the animal on the surface, you measure the time until the moment when the animal licks its' foot. When analgesics are administered, the time before the rat licks its' feet increases. The licking latency (HPL) of 40 seconds was used as the maximum allowable time of stimulation. The study was conducted on male rats weighing 160-180 g, 6 animals per dose.
In general terms: Thermal pain tests record how soon the animal reacts.

The test system of data set [2] is mice. In words: Acetic acid-induced writhing test in mice. In kind it is in vivo. To be noted: for Number of writhings, n (Mean ± SEM): 15 minutes count. The procedure: The acetic acid-induced writhing test is a model of a chemical nociceptive stimulus applied by the intraperitoneal injection of acetic acid solution.
Intraperitoneal injection of substances that irritate serous membranes in mice induces distinctive movements, including contractions of abdominal muscles followed by muscle relaxation, extension of the hind limbs and curving of the back, known as writhing. Mice were given an intraperitoneal injection of 1% acetic acid at a dose of 0.1 mL per 10 g body weight. After the injection the mice were placed in transparent acrylic chambers and counted the number of writhings in each animal for the next 15 minutes. The analgesic effect was evaluated by a reduction in the number of writhings in mice that received the study drug relative to the control group. […] Writhing onset latency in mice was used as an additional parameter for evaluating the efficacy of the substance in the acetic acid-induced writhing test.
(An intraperitoneal irritant provokes the stretching counted in writhing tests.)

Data set [3] relates to mice. In words: Open field test and toxicity of high doses in mice. To be noted: open field, 20 EC50 doses (120 mg/kg). In kind it is in vivo. How it is done:
Testing of the influence of the injectable substance based on tetrapeptide (as in example 2) H-Tyr-D-Arg-Phe-Gly-NH2 on the behavior of animals, was provided in the study of the toxicity of high doses of the “open field” test and maintaining balance on a horizontal rod.
The aim of the experiment was to identify an effective dose of the substance that affects the behavior of the animals. It was tested on several animals after administration of different doses of peptide compound.
The experimental and control groups of male mice were taken from the same batch, about the same weight (22-24 g).
The substance was injected intraperitoneally in identical weight amounts to laboratory animals in the experimental and control groups, respectively. […] The measurement was started 15 minutes after injection.
Several groups were organized: without the introduction of the substance, and with the introduction of a solution of morphine or peptide. After 15 from injection we conducted measurement in the following order:
Each animal tested was introduced into a round, not brightly lit arena. The surface is divided into square blocks of 10 cm each. We count locomotor activity of the mouse when it crossed the square. The movement of the mouse in the center of the arena and on the periphery, are recorded separately. We registered the number of times the mouse stands on its hind legs “stand” and the number of times the mouse looks into a “burrow”—ie. holes in the floor. Observations were done visually and were simultaneously entered into a computer using a keyboard (semi-automatic registration).

The test system of data set [4] is mice. To be noted: published data, cited from earlier work.
Data set [5] has as its target opioid μ-receptors located on GPI (Cavia porcellus, UniProt A0ACM8Q262). Nature of the data set: Inhibition of electrically stimulated contractions of isolated guinea pig ileum (GPI). In kind it is cell-based. Further details: amplitude: unit not given here. The procedure:
Effect was assessed by ability to inhibit the contraction caused by electrical stimulation of isolated organs—guinea pig ileum (GPI). Work was carried out on a special apparatus for testing substances for opioid activity on the model of guinea pig ileum. GPI, taken from nonlinear animals were placed in a 10 ml volumetric flask with electrodes inserted containing Krebs solution at 34° C. in a water bath (HOECHST Organbad, Germany) with a thermostat for maintaining a constant temperature in the working cell. The lower end of the GPI is fixed to the vessel at the bottom. The upper end of the ligature was attached to the sensor strength registration device (sensors isometric registration K-30, “Hugo Sachs Elektronik KG”, Germany). The initial tension of the organs was 1 gram. The solution with placed in GPI was being constantly aerated. GPI segments were equilibrated in the Krebs solution for one hour.
GPI contractions were stimulated by plate electrodes with electrical impulses in a series of four rectangular pulses each lasting 0.5 ms and with 1.5 ms intervals, with delays at 7.5 sec. between the series and voltage 80V using a generator of electric impulses (type 215/I, Hugo Sachs Elektronik, Germany). Registration was performed in isometric contraction mode using K30 sensors via two channel amplifiers MS 6601 (“Watanabe”, Japan).
At the beginning stimulation was applied for a minimum of 45 minutes, which allowed reproducible responses to be established.
The tested substance was administered in a solution bathing the organs in a volume of 0.005 to 0.015 ml, to final concentrations of 1×10^−9-1×10^−6 M. Each subsequent introduction of the substance was done 1 minute after the previous dose without washing the organs, on a cumulative basis. […] Active substances were expressed on an indicator pD2 (numerically equal to the negative decimal logarithm of the concentration of a substance that causes 50% of the maximum effect). In other words, the potency of the opioid receptor agonists in the absence and presence of the antagonist was assessed as the negative logarithm of the concentration required to cause 50% of the maximum response (pD2) using the logistic equation described by DeLean A. et al.
During the experiment, the change in GPI amplitude contractions was taken into account and was fixed. Parallel monitoring in 4 chambers with GPI segments for each substance was used.

The test system of data set [6] is mice. As to conditions: subcutaneously to mice, acute pain, ringer solution; application JPS6054400; cited from earlier work.

Like-named read-outs stand apart in the source and are kept apart here. [ ]: non-standard residue; d: D form. Sar = CNCC(=O)O

Sequence of opioid μ-receptors located on GPI (A0ACM8Q262 1-400): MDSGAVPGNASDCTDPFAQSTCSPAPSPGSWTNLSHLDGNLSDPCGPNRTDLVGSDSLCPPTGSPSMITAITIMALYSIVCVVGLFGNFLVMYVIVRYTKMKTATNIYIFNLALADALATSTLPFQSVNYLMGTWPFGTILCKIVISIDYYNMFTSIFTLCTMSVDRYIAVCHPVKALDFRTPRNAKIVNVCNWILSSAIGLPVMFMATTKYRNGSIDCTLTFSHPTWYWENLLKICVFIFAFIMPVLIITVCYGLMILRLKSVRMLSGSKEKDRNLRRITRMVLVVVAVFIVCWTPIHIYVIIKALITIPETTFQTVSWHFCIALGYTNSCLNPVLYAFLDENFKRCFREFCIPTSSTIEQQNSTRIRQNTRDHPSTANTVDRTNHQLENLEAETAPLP

`CN1CC[C@]23c4c5ccc(O)c4O[C@H]2[C@@H](O)C=C[C@H]3[C@H]1C5` [Morphine, reference compound]: the “Proportion of the maximum possible effect (MPE), %” value in data set [1] (5 mg/kg subcutaneous) amounted to 68.6%; in data set [1] (15 mg/kg subcutaneous), 95.7%. Further, the “HPL, s (Mean ± SEM)” value came to 27.45 ± 4.4 s in data set [1] (5 mg/kg subcutaneous) and 38.31 ± 2.63 s in data set [1] (15 mg/kg subcutaneous). Besides, the figures for the “% of mice w/o writhing” value in data set [2] (1 mg/kg subcutaneous) and in data set [2] (3 mg/kg subcutaneous) were 14.3% and 37.5%, respectively. Also, the “Number of mice w/o writhing/number of mice in group” value in data set [2] (1 mg/kg subcutaneous) is listed as 1/7; in data set [2] (3 mg/kg subcutaneous), 3/8. In addition, the “Writhing onset latency, s (Mean ± SEM)” value was 467.1 ± 74.41 s in data set [2] (1 mg/kg subcutaneous) and 695.0 ± 85.00 s in data set [2] (3 mg/kg subcutaneous). The “Number of writhings, n (Mean ± SEM)” value in data set [2] (1 mg/kg subcutaneous 40 minutes before acetic acid) is 12.4 ± 3.73 n; in data set [2] (3 mg/kg subcutaneous 40 minutes before acetic acid) it was 2.1 ± 0.83 n. In addition, in data set [3], the physical activity reduced is 50-70%. The “antinociceptive activity, % of MPE” value in data set [4] (dosage 7 mg/kg) was 50%; in data set [4] (dosage 10 mg/kg), 75%; in data set [4] (dosage 20 mg/kg), 95%.
Turning to H-Y[dR]FG-NH2 [TP1], the amplitude in data set [5] (concentration 1.0E−09 M) is given as 38.7; in data set [5] (concentration 1.4E−06 M), 9.3; in data set [5] (concentration 1.4E−07 M), 23.0; in data set [5] (concentration 1.4E−08 M) it was 36.0; in data set [5] (concentration 4.0E−09 M), 38.7; in data set [5] (concentration 4.4E−07 M) it was 15.7. The compound further gave an amplitude in data set [5] (concentration 4.4E−08 M) of 30.3. Further, the inhibit. effect in data set [5] (concentration 1.0E−09 M) is recorded as 0.0%; in data set [5] (concentration 1.4E−06 M), 76.6%; in data set [5] (concentration 1.4E−07 M) it was 41.1%; in data set [5] (concentration 1.4E−08 M), 7.0%; in data set [5] (concentration 4.0E−09 M), 0.0%; in data set [5] (concentration 4.4E−07 M) it was 61.1%. This compound also came in with an inhibit. effect in data set [5] (concentration 4.4E−08 M) of 22.9%. For the same compound, the “analgesic action, times the activity of morphine” value in data set [6] is given as “more than 6 times”.
In the case of H-Y[dR]F[Sar]-OH [TP2], the amplitude in data set [5] (concentration 1.0E−09 M) was found to be 38.2; in data set [5] (concentration 1.4E−06 M) it was 8.6; in data set [5] (concentration 1.4E−07 M) it was 22.0; in data set [5] (concentration 1.4E−08 M), 35.3; in data set [5] (concentration 4.0E−09 M), 38.2; in data set [5] (concentration 4.4E−07 M), 15.2. Further, the amplitude in data set [5] (concentration 4.4E−08 M) was determined as 29.7. Also, the inhibit. effect turned out to be 0.0% in data set [5] (concentration 1.0E−09 M); 77.5% in data set [5] (concentration 1.4E−06 M); 42.4% in data set [5] (concentration 1.4E−07 M); 7.6% in data set [5] (concentration 1.4E−08 M); 0.0% in data set [5] (concentration 4.0E−09 M); 60.2% in data set [5] (concentration 4.4E−07 M). The same compound gave an inhibit. effect in data set [5] (concentration 4.4E−08 M) of 22.2%.
